This is an account of results in patent publication US20100041657A1, “HALOALKYLSULFONE SUBSTITUTED COMPOUNDS USEFUL FOR TREATING OBESITY AND DIABETES” (NOVO NORDICK A/S, priority 2005, published 2010).

“And” between values parts separate entries of the source, which are not always exact repeats. Equal entries are not always repeated.

By melting point is commonly meant the temperature, or range, at which the solid turns liquid. In turn, `O=C(Nc1ccc(SC(F)(F)F)c(Cl)c1)c1cc(Cl)c2ccccc2c1O` [Example 27, 4-Chloro-1-hydroxy-naphthalene-2-carboxylic acid (3-chloro-4-trifluoromethylsulfanyl-phenyl)-amide] yielded a melting point of 148 to 149 °C. As for `CC1(c2cc(-c3ccc(F)cc3F)cc(C(=O)Nc3ccc(S(=O)(=O)C(F)(F)F)cc3Cl)c2O)CCCCC1` [Example 35, 2′,4′-Difluoro-4-hydroxy-5-(1-methyl-cyclohexyl)-biphenyl-3-carboxylic acid (2-chloro-4-trifluoromethanesulfonyl-phenyl)-amide], the figure is 114 to 115 °C; as for `COc1cc(C(=O)Nc2ccc(S(=O)(=O)C(F)(F)F)cc2Cl)c(O)c(C(C)(C)C)c1` [Example 53, 3-tert-Butyl-N-(2-chloro-4-trifluoromethanesulfonyl-phenyl)-2-hydroxy-5-methoxy-benzamide], 126 to 127 °C. For `CC(C)(C)c1cc2c(c(C(=O)Nc3ccc(S(=O)(=O)C(F)(F)F)cc3Cl)c1O)CCO2` [Example 94, 6-tert-Butyl-5-hydroxy-2,3-dihydro-benzofuran-4-carboxylic acid (2-chloro-4-trifluoromethanesulfonyl-phenyl)-amide] the value was 201 to 202 °C; for `CC(C)(C)c1cc2c(c(C(=O)Nc3ccc(S(=O)(=O)C(F)(F)F)cc3Cl)c1O)CCCC2` [Example 50, 3-tert-Butyl-2-hydroxy-5,6,7,8-tetrahydro-naphthalene-1-carboxylic acid (2-chloro-4-trifluoromethanesulfonyl-phenyl)-amide], 151 °C; for `CC(C)(C)c1cc2c(c(C(=O)Nc3ccc(S(=O)(=O)C(F)(F)F)cc3Cl)c1O)CCC2` [Example 48, 6-tert-Butyl-5-hydroxy-indan-4-carboxylic acid (2-chloro-4-trifluoromethanesulfonylphenyl)-amide], 172 to 173 °C.

As to `O=C(Nc1ccc(S(=O)(=O)C(F)(F)F)cc1Cl)c1c(O)c(C23CC4CC(CC(C4)C2)C3)cc2c1CCCC2` [Example 29], the melting point fell in the range of 205 to 206 °C. For `O=C(Nc1ccc(S(=O)(=O)C(F)(F)F)cc1Cl)c1cc([S+]([O-])c2ccc(F)cc2)c2ccccc2c1O` (stereo not shown) [Example 33, 4-(4-Fluoro-benzenesulfinyl)-1-hydroxy-naphthalene-2-carboxylic acid (2-chloro-4-trifluoromethanesulfonyl-phenyl)-amide] the value was 198 to 199.5 °C; for `COc1ccc(C(C)(C)C)c(O)c1C(=O)Nc1ccc(S(=O)(=O)C(F)(F)F)cc1Cl` [Example 92, 3-tert-Butyl-N-(2-chloro-4-trifluoromethanesulfonyl-phenyl)-2-hydroxy-6-methoxy-benzamide], 198 to 199 °C; for `Cc1c([S+](C)[O-])cc(C(C)(C)C)c(O)c1C(=O)Nc1ccc(S(=O)(=O)C(F)(F)F)cc1Cl` (stereo not shown) [Example 51, 3-tert-Butyl-N-(2-chloro-4-trifluoromethanesulfonyl-phenyl)-2-hydroxy-5-methanesulfinyl-6-methyl-benzamide], 218 to 219 °C (dec.). For `O=C(Nc1ccc(SC(F)(F)F)cc1)c1ccc2c(c1O)CCCC2` [Example 21, 1-Hydroxy-5,6,7,8-tetrahydro-naphthalene-2-carboxylic acid (4-trifluoromethylsulfanyl-phenyl)-amide] the value was 167 °C; for `Cc1c(O)cc(C(C)(C)C)c(O)c1C(=O)Nc1ccc(S(=O)(=O)C(F)(F)F)cc1Cl` [Example 95, 3-tert-Butyl-N-(2-chloro-4-trifluoromethanesulfonyl-phenyl)-2,5-dihydroxy-6-methylbenzamide], 163 to 166 °C. For `O=C(Nc1cccc(SC(F)(F)F)c1)c1ccc2ccccc2c1O` [Example 17, 1-Hydroxy-naphthalene-2-carboxylic acid (3-trifluoromethylsulfanyl-phenyl)-amide] the value was 154 °C; for `O=C(Nc1ccc(S(=O)(=O)C(F)(F)F)cc1Cl)c1c(O)c(C23CC4CC(CC(C4)C2)C3)cc2c1CCC2` [Example 30, 6-Adamantan-1-yl-5-hydroxy-indan-4-carboxylic acid (2-chloro-4-trifluoromethanesulfonyl-phenyl)-amide], 218 to 219 °C. Take `O=C(Nc1cccc(S(=O)(=O)C(F)(F)F)c1)c1cc2ccccc2cc1O` [Example 19, 3-Hydroxy-naphthalene-2-carboxylic acid (3-trifluoromethanesulfonyl-phenyl)-amide]: the melting point lay in the range of 212 to 213 °C. For `O=C(Nc1cccc(S(=O)(=O)C(F)(F)F)c1)c1c(O)ccc2ccccc12` [Example 18, 2-Hydroxy-naphthalene-1-carboxylic acid (3-trifluoromethanesulfonyl-phenyl)-amide] the value was 179 to 180 °C; for `CC(C)c1ccc(C(C)(C)C)c(O)c1C(=O)Nc1ccc(S(=O)(=O)C(F)(F)F)cc1Cl` [Example 54, 3-tert-Butyl-N-(2-chloro-4-trifluoromethanesulfonyl-phenyl)-2-hydroxy-6-isopropyl-benzamide], 116 to 116.5 °C; for `CC(C)(C)c1cc(C(C)(C)C)c(O)c(C(=O)Nc2ccc(S(=O)(=O)C(F)(F)F)cc2Cl)c1O` [Example 100, 3,5-Di-tert-butyl-N-(2-chloro-4-trifluoromethanesulfonyl-phenyl)-2,6-dihydroxy-benzamide], 149 to 150 °C. In turn, `CCc1ccc(C(C)(C)C)c(O)c1C(=O)Nc1ccc(S(=O)(=O)C(F)(F)F)cc1Cl` [Example 46, 3-tert-Butyl-N-(2-chloro-4-trifluoromethanesulfonyl-phenyl)-6-ethyl-2-hydroxybenzamide] displayed a melting point of 126 to 127 °C.

`O=C(Nc1ccc(SC(F)(F)F)cc1)c1cc(Cl)c2ccccc2c1O` [Example 23, 4-Chloro-1-hydroxy-naphthalene-2-carboxylic acid (4-trifluoromethylsulfanyl-phenyl)amide] registered a melting point of 172 to 175 °C. In the case of `COc1c(O)cc(C(C)(C)C)c(O)c1C(=O)Nc1ccc(S(=O)(=O)C(F)(F)F)cc1Cl` [Example 96, 3-tert-Butyl-N-(2-chloro-4-trifluoromethanesulfonyl-phenyl)-2,5-dihydroxy-6-methoxy-benzamide], the melting point fell in the range of 171 to 175 °C. As to `COc1cc(C(C)(C)C)c(O)c(C(=O)Nc2ccc(S(=O)(=O)C(F)(F)F)cc2Cl)c1O` [Example 97, 3-tert-Butyl-N-(2-chloro-4-trifluoromethanesulfonyl-phenyl)-2,6-dihydroxy-5-methoxy-benzamide], the melting point lay in the range of 170 to 171 °C. As for `CCc1c(C(C)(C)C)cc(C(C)(C)C)c(O)c1C(=O)Nc1ccc(S(=O)(=O)C(F)(F)F)cc1Cl` [Example 47, 3,5-Di-tert-butyl-N-(2-chloro-4-trifluoromethanesulfonyl-phenyl)-2-ethyl-6-hydroxybenzamide], the figure is 157 to 158 °C; as for `O=C(Nc1ccc(SC(F)(F)F)cc1)c1cc(S(=O)(=O)c2ccccc2)c2ccccc2c1O` [Example 22, 4-Benzenesulfonyl-1-hydroxy-naphthalene-2-carboxylic acid (4-trifluoromethylsulfanyl-phenyl)-amide], 271 to 272 °C.

In turn, `O=C(Nc1ccc(S(=O)(=O)C(F)(F)F)cc1Cl)c1cc(Sc2ccc(F)cc2)c2ccccc2c1O` [Example 31, 4-(4-Fluoro-phenylsulfanyl)-1-hydroxy-naphthalene-2-carboxylic acid (2-chloro-4-trifluoromethanesulfonyl-phenyl)-amide] gave a melting point of 195 to 198 °C.

Compound `O=C(Nc1ccc(S(=O)(=O)C(F)(F)F)cc1Cl)c1cc(-c2ccc(F)cc2F)cc(C23CC4CC(CC(C4)C2)C3)c1O` [Example 32, 5-Adamantan-1-yl-2′,4′-difluoro-4-hydroxy-biphenyl-3-carboxylic acid (2-chloro-4-trifluoromethanesulfonyl-phenyl)-amide] gave a melting point of 177 to 178 °C. Take `Cc1cc(C(=O)Nc2ccc(S(=O)(=O)C(F)(F)F)cc2Cl)c(O)c(C(C)(C)C)c1` [Example 26, 3-tert-Butyl-N-(2-chloro-4-trifluoromethanesulfonyl-phenyl)-2-hydroxy-5-methylbenzamide]: the melting point was 209 to 212 °C. For `O=C(Nc1cccc(S(=O)(=O)C(F)(F)F)c1)c1ccc2ccccc2c1O` [Example 16, 1-Hydroxy-naphthalene-2-carboxylic acid (3-trifluoromethanesulfonyl-phenyl)-amide] the value was 194 to 195 °C; for `COc1cc(C(C)(C)C)c(O)c(C(=O)Nc2ccc(S(=O)(=O)C(F)(F)F)cc2Cl)c1C` [Example 93, 3-tert-Butyl-N-(2-chloro-4-trifluoromethanesulfonyl-phenyl)-2-hydroxy-5-methoxy-6-methyl-benzamide], 121 to 122 °C; for `Cc1cc(C(=O)Nc2ccc(S(=O)(=O)C(F)(F)F)cc2Cl)c(O)c(C23CC4CC(CC(C4)C2)C3)c1` [Example 24, 3-Adamantan-1-yl-N-(2-chloro-4-trifluoromethanesulfonyl-phenyl)-2-hydroxy-5-methyl-benzamide], 203 to 204 °C. For `CSc1c(C)cc(O)c(C(=O)Nc2ccc(S(=O)(=O)C(F)(F)F)cc2Cl)c1C` [Example 163, N-(2-Chloro-4-trifluoromethanesulfonyl-phenyl)-6-hydroxy-2,4-dimethyl-3-methylsulfanyl-benzamide] the value was 205 to 206 °C and 201 to 202 °C.
